Results reported in publication PMC4072668, “Mass Spectrometric Detection and Characterization of Atypical Membrane-Bound Zinc-Sensitive Phosphatases Modulating GABAA Receptors” (PLoS ONE, 2014).
Read-outs that look alike come from different tables or passages of the source. Non-standard residues stand in square brackets, D forms with d. No end group written: not given here. pT = C[C@@H](OP(=O)(O)O)[C@H](N)C(=O)O; pS = N[C@@H](COP(=O)(O)O)C(=O)O

Key:
[1] = tested on: membrane-bound phosphatase activities of washed cortical membrane; experiment: LC-MS/MS phosphatase assay with effectors, N-terminal phosphopeptide pI2α1N-P as substrate; assay type: biochemical; conditions: substrate pI2α1N-P; for IC50: 1 mM Mg2+, 30°C, 10 min, read-out: IC50
Procedure: (§1) Phosphatasic activity of bovine, rat and human washed cortical membranes was measured by using synthetic phosphopeptides as substrates. Reactions were performed in presence of 50 µg/ml (total proteins) of washed cortical membrane, 10 mM Hepes-Tris pH 7.4 and 1 mM MgCl2. Enzymatic reactions were initiated by adding 10 µM of phosphopeptide incubated for 10 min at 30°C and stopped by adding ice-cold acetic acid at a final concentration of 10% (w/v). Following a 800 g centrifugation during 10 min at 4°C, the supernatants were analyzed by LC-MS/MS. […] For these reasons, and to avoid micro-capillary column obstruction we have preferentially used the micro-LC column to characterize the pharmacological profile of phosphatasic activities.
(§2) Quantification of appearance of the native peptide and disappearance of the phosphopeptide in different conditions was performed using the calibration curve plotted using the Xcalibur software (P/N 64018-XCALI version 1.3). The calibration curve and linear regression were constructed using a series of standards, native and phosphorylated equimolar mixture, N- or C-terminal peptides at different concentrations 0.5, 1, 2, 5 and 10 µM (n = 2) in 10 mM Hepes pH 7.4, 1 mM Mg^2+ and 10% acetic acid, which was the same milieu condition as in the phosphatase assay after stopping reactions. The linear regression represents peak area of MS/MS chromatogram spectra depending on the peptide concentration (Figure S1).
(§3) Different effectors were tested by addition to the incubation medium at variable concentration: the dicationic ions Mg^2+, Ca^2+, Zn^2+ were used as chloride, the polycation spermine as hydrochloride, the anion F^− as sodium fluoride (NaF), and the inhibitors of some known phosphatases okadaic acid and the two (+/−) enantiomers of p–bromotetramisole oxalate (p-Br-t). For the inhibitory effects, relative 50% inhibition concentration (IC50) values were either determined graphically with a log-scale for the concentration axis or by the ‘log (inhibitor) vs. response’ nonlinear fit of Prism 5 software (GraphPad), considering activity in the absence of inhibitor as 100%.
Figure 4 Effects of various inhibitors on the membrane-bound phosphatase activities. […] Incubations were performed at 30°C during 10 min. The activities are expressed as a percentage of that of control samples without inhibitors. Inhibition profiles of PPase activities by okadaic acid were performed using N-terminal phosphopeptide (A) or C-terminal phosphopeptide (B) as substrate. The data points are means ± SEM of 3 experiments. The red arrows indicate the different IC50. […] Data points are the average ± SEM of duplicate assays. (D) Effect of Ca^2+ ions, fluoride (F^−) and spermine (SPM^4+) on PPase activity using N-terminal phosphopeptide as substrate.

alkaline phosphatase = tested on: alkaline phosphatase; parameters: method as in PMID 10898722; conditions: cited from earlier work
[2] = tested on: membrane-bound phosphatase activities of washed cortical membranes; experiment: Enzyme kinetics of membrane-bound phosphatase activities with phosphopeptide substrates; assay type: biochemical; conditions: for Km / Vmax: phosphopeptide as substrate, 50 µg/ml membrane proteins, 30°C, 10 min, Michaelis-Menten fit
Procedure: Phosphatasic activity of bovine, rat and human washed cortical membranes was measured by using synthetic phosphopeptides as substrates. Reactions were performed in presence of 50 µg/ml (total proteins) of washed cortical membrane, 10 mM Hepes-Tris pH 7.4 and 1 mM MgCl2. Enzymatic reactions were initiated by adding 10 µM of phosphopeptide incubated for 10 min at 30°C and stopped by adding ice-cold acetic acid at a final concentration of 10% (w/v). Following a 800 g centrifugation during 10 min at 4°C, the supernatants were analyzed by LC-MS/MS. This centrifugation step was critical to remove membrane suspension that interferes with nano-LC and MS analysis. For these reasons, and to avoid micro-capillary column obstruction we have preferentially used the micro-LC column to characterize the pharmacological profile of phosphatasic activities.
The best conditions of incubation time and total protein concentration of washed cortical membranes were determined for assaying phosphatase activity with 10 µM of pI2α1 phosphopeptide. Protein concentration varied from 1 to 300 µg/ml and incubation time from 0.25 to 30 min, at fixed temperature of 30°C as in previous studies. Initial velocity of the enzymatic reaction was determined by linear regression (slope value). The optimal conditions were obtained with 50 µg/ml total membrane protein concentration and 10 min incubation time. The effects of the substrate effects were measured by varying the pI2α1N-P and pI2α1C-P concentrations between 3 and 75 µM. Saturation plots were generated via non-linear fit to the Michaelis-Menten equation. The affinity constant (Km) and maximum velocity (Vmax) were evaluated from this curve fitting using the Prism 5 computer program (GraphPad). Double-reciprocal plots with the Lineweaver-Burk equation were also drawn by linear fits using the same software.
Figure 2 LC-MS/MS detection and kinetics analysis of GABAAR α1-subunit phosphatase activities. (A) Dose-dependency at various protein concentrations; (B) time course of phosphatase activities using 50 µg/ml of total proteins of washed cortical membranes from bovine brain and (C) from human epileptic tissue. The N-terminal phosphopeptide (pI2α1N-P) used as substrate at 10 µM was incubated during 10 min at 30°C in 10 mM Hepes (pH 7.4) in the presence of 1 mM Mg^2+. The enzymatic reactions were stopped with 10% acetic acid and the samples were analyzed by LC-MS/MS as in figure 1E, F. The dephosphorylation rate was quantified by measuring simultaneously the quantity of the produced native peptide (pI2α1N) and of the remaining phosphorylated substrate (pI2α1N-P). Error bars represent SEM of two experiments. Kinetic analysis of GABAAR α1-subunit phosphatase activities was investigated using N-terminal (pI2α1N-P) and C-terminal (pI2α1C-P) phosphopeptides. All experiments were carried out with 50 µg/ml membrane proteins concentration, incubated at 30°C during 10 min, in presence of different concentrations of substrates. (D) Saturation plot of the initial velocity Vi versus [pI2α1N-P] and Lineweaver-Burk plots of 1/V versus 1/[pI2α1N-P] […] (E) Saturation plot of Vi versus [pI2α1C-P] and Lineweaver-Burk plot of 1/V versus 1/[pI2α1C-P] (inset). The data points are means ± SEM of 3 experiments.

[3] = tested on: membrane-bound phosphatase activities of rat washed cortical membrane; experiment: LC-MS/MS phosphatase assay, Zn2+ profile, N-terminal phosphopeptide pI2α1N-P as substrate; assay type: biochemical; conditions: for IC50: substrate pI2α1N-P 10 µM, 1 mM Mg2+, 30°C, 10 min, two-step fit
Procedure: as §1, §2, §3
Assays were performed in presence of rat washed cortical membrane at 50 µg/ml of total protein concentration, with increasing amounts of Zn^2+ ions in 10 mM Hepes buffer pH 7.4 with 1 mM Mg^2+ in presence of. Incubations were performed at 30°C during 10 min. The activities are expressed as a percentage of that of control samples. […] (H) PPase activity at very low Zn^2+ concentrations (1 pM–200 nM). The IC50 values are mentioned with their 95% confidence intervals and calculated from nonlinear regression curve fits using GraphPad Prism 5.

[4] = tested on: membrane-bound phosphatase dephosphorylating GABAAR; parameters: method as in PMID 10762086; conditions: cited from earlier work
[5] = tested on: membrane-bound phosphatase activities of rat washed cortical membrane; experiment: LC-MS/MS phosphatase assay, Zn2+ profile, C-terminal phosphopeptide pI2α1C-P as substrate; assay type: biochemical; conditions: for IC50: substrate pI2α1C-P 10 µM, 1 mM Mg2+, 30°C, 10 min, two-step fit
Procedure: as §1, §2
Different effectors were tested by addition to the incubation medium at variable concentration: the dicationic ions Mg^2+, Ca^2+, Zn^2+ were used as chloride, the polycation spermine as hydrochloride, the anion F^− as sodium fluoride (NaF), and the inhibitors of some known phosphatases okadaic acid and the two (+/−) enantiomers of p–bromotetramisole oxalate (p-Br-t). […]
Assays were performed in presence of rat washed cortical membrane at 50 µg/ml of total protein concentration, with increasing amounts of Zn^2+ ions in 10 mM Hepes buffer pH 7.4 with 1 mM Mg^2+ in presence of. […] The activities are expressed as a percentage of that of control samples. […]

[6] = tested on: GABAA receptor currents in pyramidal neurons; parameters: method as in PMID 15342727; conditions: cited from earlier work
[7] = read-out: IC50 (H), high affinity
[8] = read-out: IC50 (L), low affinity

**Q.** Which results are given for `Brc1ccc(C2CN3CCSC3=N2)cc1.O=C(O)C(=O)O` (single isomer, unassigned; (-)) [(−)-p--Br--t, (−)-p-bromotetramisole oxalate]?
**A.** inhibition of membrane phosphatase activities ([1]; 1 mM): completely inhibited; IC50 [1]: 300 µM; inhibition of alkaline phosphatase (alkaline phosphatase): potent alkaline phosphatase inhibitor

**Q.** With EPKKTFNSV[pS]KIDR [pI2α1C-P] as the compound, how does the “reduction in catalytic efficiency (Vmax/Km) compared to the phosphothreonine peptide PI2α1N-P” value [2] read?
**A.** eightfold reduction

**Q.** What about the Km [2] of the same compound?
**A.** 116 ± 20 µM

**Q.** What about the Vmax [2] of the same compound?
**A.** 1290±150 pM.min^−1.ml^−1

**Q.** Which “effect on phosphatasic activities at low concentrations” value ([3]; 1 pM–200 nM Zn2+, substrate pI2α1N-P) does the source give for `[Cl-].[Cl-].[Zn+2]` [Zn^2+, Zinc chloride] here?
**A.** several activations

**Q.** And the “inhibition of phosphatase activities” value ([3]; 1 mM Zn2+, substrate pI2α1N-P)?
**A.** completely inhibited

**Q.** And the IC50 [3, 7]?
**A.** 1.7 µM

**Q.** What about the IC50 [3, 8] of the same compound?
**A.** 48 µM

**Q.** What about the “inhibition of membrane-bound phosphatase activity” value ([4]; concentrations between 0.1 µM-1 mM) of the same compound?
**A.** inhibited

**Q.** What about the “inhibition of GABAAR dephosphorylation” value ([4]; washed brain membranes, autoradiographic method) of the same compound?
**A.** complete inhibition

**Q.** And the “inhibition of phosphatase activities” value ([5]; 1 mM Zn2+, substrate pI2α1C-P)?
**A.** completely inhibited

**Q.** And the IC50 [5, 7]?
**A.** 0.6 µM

**Q.** What about the IC50 [5, 8] of the same compound?
**A.** 15 µM

**Q.** Which “inhibition of membrane phosphatase activities” value ([1]; 1 mM) does the source give for `Brc1ccc(C2CN3CCSC3=N2)cc1.O=C(O)C(=O)O` (single isomer, unassigned; (+)) [(+)-p--Br--t, (+)-p-bromotetramisole oxalate] here?
**A.** completely inhibited

**Q.** What about the IC50 [1] of the same compound?
**A.** 100 µM

**Q.** What about the “inhibition of alkaline phosphatase” value (alkaline phosphatase) of the same compound?
**A.** completely insensitive

**Q.** For `NCCCNCCCCNCCCN` [Spermine, spermine], which “inhibition of phosphatase activities” value ([1]; 1 mM) is on record?
**A.** 10%

**Q.** And the “inhibition of phosphatase activities” value ([1]; 10 mM)?
**A.** 20%

**Q.** What about the IC50 [1] of the same compound?
**A.** > 10000 µM

**Q.** For `[Na+].[Na+].[Na+].[O]=[V]([O-])([O-])[O-]` [sodium orthovanadate], which “inhibition of membrane phosphatases” value [4] is on record?
**A.** inhibits

**Q.** And the “effect on rundown of GABAA currents” value [6]?
**A.** reduced rundown

**Q.** With NYF[pT]KRGYAWDGK [pI2α1N-P] as the compound, how does the Km [2] read?
**A.** 25.4 ± 3.3 µM

**Q.** And the Vmax [2]?
**A.** 2320±130 pM.min^−1.ml^−1

**Q.** Which “inhibition of phosphatase activities” value ([1]; 1 mM) does the source give for `[F-].[Na+]` [fluoride (F^−), sodium fluoride] here?
**A.** 45%

**Q.** What about the “inhibition of phosphatase activities” value ([1]; 10 mM) of the same compound?
**A.** ~90%

**Q.** And the IC50 ([1]; listed as Sodium fluoride)?
**A.** < 2000 µM

**Q.** What about the IC50 [1] of the same compound?
**A.** ~2000 µM

**Q.** Which “inhibition of phosphatase activities” value ([1]; 1 mM) does the source give for `[Ca+2].[Cl-].[Cl-]` [Ca^2+, CaCl2] here?
**A.** 30%

**Q.** And the “inhibition of phosphatase activities” value ([1]; 10 mM)?
**A.** less than 60%

**Q.** And the IC50 [1]?
**A.** ~5000 µM

**Q.** For `[Cl-].[Cl-].[Mg+2]` [Mg^2+, MgCl2], which “effect of increasing concentration on phosphatase activities” value ([1]; 1 µM to 1 mM, data not shown) is on record?
**A.** moderate but not linear increase
